Assay [1] relates to mitochondria of triticale protoplasts. The assay is described as follows: qRT-PCR of gfp mRNA, protoplasts transfected with pWMaadA16GFP. Type of assay: cell-based. The following applies: gfp reporter construct. The text has this:
FIG. 19 is a plot showing the level of expression (fold increase, average of 4 replicates) of GFP in triticale protoplasts transfected with the pWMaadA16GFP plasmid in the presence of mTP1 (SEQ ID NO: 1), mTP2 (SEQ ID NO: 2), mTP3 (SEQ ID NO: 3), mTP4 (SEQ ID NO: 4) or mTP5 (SEQ ID NO: 5) compared to the level of expression (fold increase) of the internal control elongation factor 1a (EF1a), as measured by quantitative real time PCR of mRNA levels; and
Wheat mitochondrial aadA16GFP reporter plasmid (pWMaadA16GFP, FIG. 11) is a 4587 base pair wheat specific mitochondrial transformation vector, which targets insertions into the fourth repeat region between the trnfM and rm18 gene cluster which is repeated three times in the Triticum aestivum mitochondrial genome. The insertion site is in the Triticum aestivum mitochondrial genome at nucleotides 300805-300878 and 300880-302834 (GenBank accession No. AP008982.1). A multiple cloning site is introduced following the tmfM target insertion sequence. The selection marker gene is an organelle codon specific aad-gfp fusion gene, which facilitates a dual selection method of spectinomycin resistance through an aadA derivative and visual detection by GFP fluorescence (GenBank accession No. ABX39486; Khan and Maliga, Nat. Biotechnol. (1999 September) 17(9): 910-5). The selection marker gene is driven by the Triticum aestivum mitochondrial atpA gene promoter (GenBank accession No. X54387.1). The aad-gfp fusion gene is terminated with the TpsbA terminator sequence derived from the Triticum aestivum mitochondrial genome at nucleotides 62871-62565 (GenBank accession No. AP008982.1).
The dsDNA construct (pWMaadA16GFP for mitochondrial expression or pWCaadA16GFP for expression in chloroplasts) is combined with the mTP (for mitochondrial expression) or cTP (for expression in chloroplasts) in a final volume of 100 μl of CPW solution. For experiments using mTP1 (SEQ ID NO: 1), mTP2 (SEQ ID NO: 2), mTP3 (SEQ ID NO: 3), or mTP5 (SEQ ID NO: 5), peptides (scaled up from 100 ng, at four times the concentration needed to cause a DNA shift in the gel mobility shift assay (Table 7)) are combined with the pWMaadA16GFP construct (5 μg). For experiments using the remaining oTPs, peptides (30 μg) are combined with the appropriate dsDNA construct (1.5 μg). The mixture is incubated for 10 minutes at room temperature, then incubated with isolated triticale mesophyll protoplasts (500 μl, 10^6 protoplasts/ml, prepared as described in Example 2) for 1 h in the dark at room temperature. CPW solution (500 μl) is added and the mixture is incubated in the dark for 24 h. The cells are imaged using confocal microscopy, as described in Example 2, using MitoTracker® Orange staining to visualize mitochondria and chlorophyll autofluorescence to visualize chloroplasts.
cDNA is generated using a First Strand Synthesis kit (Invitrogen). RNA (1 μg) is added to each sample and the manufacturer's protocol for synthesis followed, with the exception that the volume of the reaction mixture is increased from 20 μl to 30 μl. A negRT sample containing all reagents but no RNA is included in the cDNA synthesis as a negative control.
Standard curves are generated for both elongation factor 1a (EF1a) (internal control) and green fluorescent protein (GFP) (test) genes. […]
Real time PCR reactions are performed using QuantiTect™ SYBR™ Green PCR Master Mix (Qiagen) in a 20 μl reaction volume. […]
For orientation: Quantitative PCR measures a nucleic acid by following its amplification.

The subject of a further assay is tobacco protoplasts. The assay can be described thus: Incubation of tobacco protoplasts with fluorescently labeled peptides, confocal microscopy. Type of assay: cell-based, Nicotiana benthamiana. As to conditions: fluorescein-labelled peptide 20 μM, 1 hour, confocal (Olympus). The method, then: Nicotiana benthamiana plants are grown for 6-8 weeks and kept in the dark for 24 hrs prior to all experiments. All pipetting is done slowly with wide bore pipette tips to prevent protoplast lysis. Leaves are cut on the underside in many shallow thin slices, with the center vein taken out, and incubated underside down with enzyme digest solution [2% cellulase and 2% macerozyme (Yakult Honsha Co Ltd, Japan) in CPW (cell protoplast washing) solution, pH 5.6 (Frearson E M, Power J B, Cocking E C (1973) Dev Biol 33: 130-137)] in […] Petri dishes for 3-5 hrs at 28° C. After incubation, leaves are gently shaken with forceps to release any remaining protoplasts, and medium is gently filtered through […] sieves and transferred into 50 mL centrifuge tubes. The medium is spun for 5 min at 300 g at 4° C., and a floating band of protoplasts is removed from the top of the suspension, resuspended in W5 wash solution (154 mM NaCl, 125 mM CaCl2.2H2O, 5 mM KCl, 5 mM glucose, 0.5 M mannitol adjusted to pH 5.8 with 0.1 M KOH), and spun for 3 mins at 300 g at 4° C. The pellet is gently layered on 5 mL of 20% maltose in a 15 mL centrifuge tube, and centrifuged 5 mins at 300 g. A floating band in the center of the solution is carefully removed and resuspended with MaMg solution (15 mM MgCl2, 0.1% MES, 0.4 M mannitol, adjusted to pH 5.6 with KOH), and spun for 3 mins at 300 g at 4° C. The protoplast suspension is diluted to 100,000 cells/ml using a hemocytometer.
A stock solution of fluoresceinated mTPs or cTPs (100 μM) prepared with sterile optimum water is added to protoplast suspension at a final concentration of 20 μM. Each suspension is incubated at room temperature for 1 hour in the dark. Following incubation, 25% Trypsin EDTA is added for 5 minutes and the solution is centrifuged for 2 minutes at 120 g. The pellet is resuspended in fresh MaMg media, and 1.5 μL MitoTracker® Orange CM-H2TMRos (M7511, Invitrogen) is added for 15 minutes, followed by centrifugation for 2 minutes at 120 g. Protoplasts are mounted on slides in 1% low melting point agar (2:1 ratio of agar to protoplast suspension) for confocal microscopy (Olympus; both XY cross section and XYZ depth images).
Cells are observed using a confocal microscope (Nikon C1, Nikon Canada Inc. or Olympus FluoView™) to analyse the localization of the fluoresceinated mTPs or cTPs (excitation wavelength 490 nm/emission wavelength 520 nm). Chloroplasts are identified by autofluorescence. The fluorescent dye MitoTracker® Orange CM-H2TMRos (M7511, Invitrogen) is used to stain mitochondria (excitation wavelength 554 nm/emission wavelength 576 nm). Fluorescence emissions are collected in z-confocal planes of […] and analyzed using EZ-C1 Software Version 3.6 (Nikon) or Olympus FluoView™ software version 2.0b (Olympus).

As for “MWWRRSRTNSLRYT (listed as Arabidopsis thaliana) [mTP4]”, the “GFP expression by mitochondria confirmed by qRT-PCR” value (“GFP expression” for short) in assay [1] is reported as “GFP is expressed”.

With “MSSPPPLFTSCLPASSPSIRRDSTSGSVTSPLR (listed as Arabidopsis thaliana) [cTP5]”, the Organelle localization entry in the assay on tobacco protoplasts is on record as “localize to chloroplasts”.

On to “MAALIPAIASLPRAQVEKPHPMPVSTRPGLVS (listed as Triticum aestivum) [cTP4]”, for which the Organelle localization entry in the assay with tobacco protoplasts is “localize to chloroplasts”. On to “MGGCVSTPKSCVGAKLR (listed as Arabidopsis thaliana) [cTP1]”, for which the Organelle localization result in the assay on tobacco protoplasts is listed as “localize to chloroplasts”. In the case of MAAWMRSLFSPLKKLWIRMH (Zea mays) [mTP2], the Organelle localization result in the assay with tobacco protoplasts is recorded as “localize to mitochondria”. Besides, the “GFP expression” value in assay [1] is listed as “GFP is expressed”. For “MQTLTASSSVSSIQRHRPHPAGRRSSSVTFS (listed as Triticum aestivum) [cTP2]”, the Organelle localization entry in the assay with tobacco protoplasts was “localize to chloroplasts”.

“MKLLWRLILSRKW (listed as Arabidopsis thaliana) [mTP3]”: in the assay with tobacco protoplasts, the Organelle localization entry is “localize to mitochondria”. In assay [1], the “GFP expression” value is recorded as “GFP is expressed”. Turning to “MLFRLRRSVRLRGLLA (listed as Arabidopsis thaliana) [mTP5]”, the “GFP expression” value in assay [1] is “GFP is expressed”. Take “MFSYLPRYPLRAASARALVRATRPSYRSALLRYQ (listed as Triticum aestivum) [mTP1]”: the “GFP expression” value in assay [1] is listed as “GFP is expressed”.
